{"source": "paper PMC11978698", "about": "“Differential uptake of arginine derivatives by the human heteromeric amino acid transporter b^0,+AT-rBAT (SLC7A9-SLC3A1)” (Naunyn-Schmiedeberg's Archives of Pharmacology, 2024)", "molecules": {"B1": {"name": "b0,+AT (SLC7A9), in the heteromeric transporter b0,+AT-rBAT (Homo sapiens) (protein)", "chain": "MGDTGLRKRREDEKSIQSQEPKTTSLQKELGLISGISIIVGTIIGSGIFVSPKSVLSNTEAVGPCLIIWAACGVLATLGALCFAELGTMITKSGGEYPYLMEAYGPIPAYLFSWASLIVIKPTSFAIICLSFSEYVCAPFYVGCKPPQIVVKCLAAAAILFISTVNSLSVRLGSYVQNIFTAAKLVIVAIIIISGLVLLAQGNTKNFDNSFEGAQLSVGAISLAFYNGLWAYDGWNQLNYITEELRNPYRNLPLAIIIGIPLVTACYILMNVSYFTVMTATELLQSQAVAVTFGDRVLYPASWIVPLFVAFSTIGAANGTCFTAGRLIYVAGREGHMLKVLSYISVRRLTPAPAIIFYGIIATIYIIPGDINSLVNYFSFAAWLFYGLTILGLIVMRFTRKELERPIKVPVVIPVLMTLISVFLVLAPIISKPTWEYLYCVLFILSGLLFYFLFVHYKFGWAQKISKPITMHLQMLMEVVPPEEDPE"}}, "key": {"[1]": {"target": "T1, b0,+AT (SLC7A9), in the heteromeric transporter b0,+AT-rBAT (Homo sapiens, UniProt P82251)", "T1 sequence (P82251 1-487)": "B1 chain", "T1 sequence (Q07837 1-685 partner)": "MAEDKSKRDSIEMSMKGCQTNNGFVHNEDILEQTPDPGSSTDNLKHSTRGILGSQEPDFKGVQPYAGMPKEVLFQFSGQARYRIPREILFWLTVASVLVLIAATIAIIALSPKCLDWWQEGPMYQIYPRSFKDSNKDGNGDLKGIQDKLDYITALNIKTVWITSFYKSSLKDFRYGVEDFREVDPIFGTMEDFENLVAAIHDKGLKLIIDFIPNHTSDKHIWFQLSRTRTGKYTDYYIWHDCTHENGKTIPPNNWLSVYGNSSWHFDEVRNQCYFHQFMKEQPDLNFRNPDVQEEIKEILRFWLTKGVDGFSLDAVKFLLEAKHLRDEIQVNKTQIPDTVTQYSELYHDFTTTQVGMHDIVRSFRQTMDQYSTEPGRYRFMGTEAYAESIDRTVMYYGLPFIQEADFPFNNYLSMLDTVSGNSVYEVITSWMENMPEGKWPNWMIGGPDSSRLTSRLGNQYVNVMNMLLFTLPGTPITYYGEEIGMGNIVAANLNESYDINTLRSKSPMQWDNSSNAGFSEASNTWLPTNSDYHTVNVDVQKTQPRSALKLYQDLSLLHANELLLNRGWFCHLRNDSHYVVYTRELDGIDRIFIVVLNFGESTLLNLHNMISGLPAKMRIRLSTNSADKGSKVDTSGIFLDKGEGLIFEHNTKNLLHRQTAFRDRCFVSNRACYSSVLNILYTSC", "test": "cell-based"}, "[2]": {"target": "T1, b0,+AT (SLC7A9), in the heteromeric transporter b0,+AT-rBAT", "test": "inhibition of radiolabeled L-arginine ([…]), L-homoarginine and ADMA uptake by […] L-cystine in double-transfected MDCK cells", "format": "cell-based", "set-up": "human b0,+AT (NM_001126335) co-expressed with human rBAT (NM_000341.3) in MDCKII cells; with rBAT (SLC3A1)"}, "[3]": {"target": "T1, b0,+AT (SLC7A9), in the heteromeric transporter b0,+AT-rBAT", "details": "read-out: radiolabeled uptake in double-transfected MDCK cells, not saturated up to 4000 μ"}, "[4]": {"substrate": "N=C(N)NCCCC[C@H](N)C(=O)O", "test": "cells, lysate or membranes"}}}
{"molecule": "N=C(N)NCCC[C@H](N)C(=O)O", "note": "[L-arginine]", "values": [{"measurement": "IC50", "setting": "[1]", "result": 116, "unit": "µM"}]}
{"molecule": "N[C@@H](CSSC[C@H](N)C(=O)O)C(=O)O", "note": "[L-cystine]", "values": [{"measurement": "inhibition of radiolabeled L-arginine (100 μM), L-homoarginine and ADMA uptake b", "setting": "[2]", "result": "the uptake of L-homoarginine (Fig. 9c) and ADMA (Fig. 9d) was significantly inhibited at the low tested concentrations"}]}
{"molecule": "CN(C)C(=N)NCCC[C@H](N)C(=O)O", "note": "[asymmetric dimethylarginine]", "values": [{"measurement": "Km", "setting": "[3]", "result": "> 4000", "unit": "µM"}]}
{"molecule": "B1", "values": [{"measurement": "Km", "setting": "[4]", "result": 197.0, "unit": "µM"}]}
